{"source": "patent US8921362B2", "about": "“6,7-dialkoxy quinazoline derivatives and methods of treating drug resistant and other tumors” (Natco Pharma Limited, priority 2008, dated 2014)", "key": {"AKT2": {"target": "T1, AKT2 (Homo sapiens, UniProt P31751)", "T1 construct": "host or cells: E. coli (BL21-derived), T7 phage lysate", "experiment": "KinomeScan", "format": "binding", "conditions": "read-out: % Ctrl @ 10000 nM", "summary_of_the_method": "(§1)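 Competition binding of kinase-tagged T7 phage (BL21-derived E. coli lysates) to immobilized ligand on biotin-blocked beads; test compound diluted from 40× DMSO stocks, 2.5% DMSO in no-compound controls. Bound phage eluted and titer quantified by qPCR.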"}, "AKT3": {"target": "T2, AKT3 (Homo sapiens, UniProt Q9Y243)", "T2 construct": "host or cells: E. coli (BL21-derived), T7 phage lysate", "experiment": "KinomeScan", "format": "binding", "conditions": "read-out: % Ctrl @ 10000 nM", "summary_of_the_method": "as §1"}, "AMPK-alpha1": {"target": "T3, AMPK-alpha1 (Homo sapiens, UniProt Q13131)", "T3 construct": "host or cells: E. coli (BL21-derived), T7 phage lysate", "experiment": "KinomeScan", "format": "binding", "conditions": "read-out: % Ctrl @ 10000 nM", "summary_of_the_method": "as §1"}, "CAMK1G": {"target": "T4, CAMK1G (Homo sapiens, UniProt Q96NX5)", "T4 construct": "host or cells: E. coli host derived from BL21", "experiment": "KinomeScan", "format": "binding", "conditions": "read-out: % Ctrl @ 10000 nM", "summary_of_the_method": "as §1"}, "CDK2": {"target": "T5, CDK2 (Homo sapiens, UniProt P24941)", "T5 construct": "host or cells: T7 phage in E. coli host derived from BL21", "experiment": "KinomeScan", "format": "binding", "conditions": "read-out: % Ctrl @ 10000 nM", "summary_of_the_method": "as §1"}, "DAPK3": {"target": "T6, DAPK3 (Homo sapiens, UniProt O43293)", "T6 construct": "purchased Ambit Biosciences Corp (KinomeScan); host or cells: T7 phage in E. coli host derived from BL21", "experiment": "KinomeScan", "format": "binding", "conditions": "read-out: % Ctrl @ 10000 nM", "summary_of_the_method": "as §1"}, "DCAMKL1": {"target": "T7, DCAMKL1 (Homo sapiens, UniProt O15075)", "T7 construct": "purchased Ambit Biosciences Corp (KinomeScan); host or cells: T7 phage in E. coli host derived from BL21", "experiment": "KinomeScan", "format": "binding", "conditions": "read-out: % Ctrl @ 10000 nM", "summary_of_the_method": "as §1"}, "DLK": {"target": "T8, DLK (Homo sapiens, UniProt Q12852)", "T8 construct": "purchased Ambit Biosciences Corp (KinomeScan); host or cells: T7 phage in E. coli host derived from BL21", "experiment": "KinomeScan", "format": "binding", "conditions": "read-out: % Ctrl @ 10000 nM", "summary_of_the_method": "as §1"}, "DRAK1": {"target": "T9, DRAK1 (Homo sapiens, UniProt Q9UEE5)", "T9 construct": "purchased Ambit Biosciences Corp (KinomeScan); host or cells: T7 phage in E. coli host derived from BL21", "experiment": "KinomeScan", "format": "binding", "conditions": "read-out: % Ctrl @ 10000 nM", "summary_of_the_method": "as §1"}, "FES": {"target": "T10, FES (Homo sapiens, UniProt P07332)", "T10 construct": "host or cells: T7 phage in E. coli host derived from BL21", "experiment": "KinomeScan", "format": "binding", "conditions": "read-out: % Ctrl @ 10000 nM", "summary_of_the_method": "as §1"}, "FGFR4": {"target": "T11, FGFR4 (Homo sapiens, UniProt P22455)", "T11 construct": "host or cells: T7 phage in E. coli host derived from BL21", "T11 sequence (P22455 22-802)": "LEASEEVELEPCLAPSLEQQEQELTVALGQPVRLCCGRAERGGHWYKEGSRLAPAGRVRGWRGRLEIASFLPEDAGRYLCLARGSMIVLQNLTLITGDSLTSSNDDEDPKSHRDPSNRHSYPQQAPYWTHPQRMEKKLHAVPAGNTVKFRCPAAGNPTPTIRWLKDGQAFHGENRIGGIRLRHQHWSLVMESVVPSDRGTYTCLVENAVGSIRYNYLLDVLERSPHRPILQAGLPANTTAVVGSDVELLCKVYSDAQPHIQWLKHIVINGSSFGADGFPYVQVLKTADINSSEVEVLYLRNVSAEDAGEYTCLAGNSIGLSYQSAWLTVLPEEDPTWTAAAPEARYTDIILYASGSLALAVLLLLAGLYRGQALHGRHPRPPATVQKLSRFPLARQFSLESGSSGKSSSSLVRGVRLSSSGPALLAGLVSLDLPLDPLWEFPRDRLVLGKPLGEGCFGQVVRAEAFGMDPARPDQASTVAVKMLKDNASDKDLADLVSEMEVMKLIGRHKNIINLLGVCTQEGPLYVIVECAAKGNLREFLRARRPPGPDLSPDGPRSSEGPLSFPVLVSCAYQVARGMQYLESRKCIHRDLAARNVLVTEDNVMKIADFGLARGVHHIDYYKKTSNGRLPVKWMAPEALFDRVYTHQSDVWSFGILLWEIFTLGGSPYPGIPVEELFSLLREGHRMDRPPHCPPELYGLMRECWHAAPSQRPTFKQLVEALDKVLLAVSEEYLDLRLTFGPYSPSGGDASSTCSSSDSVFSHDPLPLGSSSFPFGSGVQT", "experiment": "KinomeScan", "format": "binding", "conditions": "read-out: % Ctrl @ 10000 nM", "summary_of_the_method": "as §1"}, "FLT3(N8411)": {"target": "T12, FLT3(N8411) (Homo sapiens, UniProt P36888, N841I)", "T12 construct": "host or cells: T7 phage in E. coli host derived from BL21", "experiment": "KinomeScan", "format": "binding", "conditions": "read-out: % Ctrl @ 10000 nM", "summary_of_the_method": "as §1"}, "GAK": {"target": "T13, GAK (Homo sapiens, UniProt O14976)", "T13 construct": "host or cells: T7 phage in E. coli host derived from BL21", "experiment": "KinomeScan", "format": "binding", "conditions": "read-out: % Ctrl @ 10000 nM", "summary_of_the_method": "as §1"}, "MERTK": {"target": "T14, MERTK (Homo sapiens, UniProt Q12866)", "T14 construct": "host or cells: E. coli host derived from the BL21 strain, infected with T7 phage", "experiment": "KinomeScan", "format": "binding", "conditions": "read-out: % Ctrl @ 10000 nM", "summary_of_the_method": "as §1"}, "MLCK": {"target": "T15, MLCK (Homo sapiens, UniProt Q32MK0)", "T15 construct": "host or cells: T7 phage grown in E. coli host derived from BL21", "T15 sequence (Q32MK0 whole entry)": "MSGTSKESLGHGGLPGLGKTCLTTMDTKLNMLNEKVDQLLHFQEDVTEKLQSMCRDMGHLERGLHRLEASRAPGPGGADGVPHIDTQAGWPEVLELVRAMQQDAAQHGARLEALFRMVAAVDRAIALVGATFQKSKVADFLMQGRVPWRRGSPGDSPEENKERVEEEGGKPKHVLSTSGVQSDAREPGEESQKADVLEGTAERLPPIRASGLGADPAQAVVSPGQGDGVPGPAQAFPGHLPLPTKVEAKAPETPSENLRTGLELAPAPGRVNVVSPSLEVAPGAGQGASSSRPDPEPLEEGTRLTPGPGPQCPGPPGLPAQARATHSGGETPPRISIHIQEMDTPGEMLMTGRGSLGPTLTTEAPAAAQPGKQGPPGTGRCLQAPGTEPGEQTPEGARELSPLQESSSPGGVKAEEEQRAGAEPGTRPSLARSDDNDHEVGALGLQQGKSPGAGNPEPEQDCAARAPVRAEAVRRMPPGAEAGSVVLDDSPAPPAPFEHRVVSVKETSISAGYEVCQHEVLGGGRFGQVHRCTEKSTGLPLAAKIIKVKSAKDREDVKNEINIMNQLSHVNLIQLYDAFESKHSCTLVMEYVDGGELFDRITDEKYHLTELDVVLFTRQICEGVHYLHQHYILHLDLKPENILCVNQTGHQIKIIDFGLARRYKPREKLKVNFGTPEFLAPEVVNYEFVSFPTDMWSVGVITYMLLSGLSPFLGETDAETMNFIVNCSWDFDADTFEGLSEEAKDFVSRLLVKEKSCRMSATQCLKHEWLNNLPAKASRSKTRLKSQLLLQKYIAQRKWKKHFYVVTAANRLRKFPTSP", "experiment": "KinomeScan", "format": "binding", "conditions": "read-out: % Ctrl @ 10000 nM", "summary_of_the_method": "as §1"}, "PAK3": {"target": "T16, PAK3 (Homo sapiens, UniProt O75914)", "T16 construct": "host or cells: E. coli host derived from BL21, infected with T7 phage", "T16 sequence (O75914 whole entry)": "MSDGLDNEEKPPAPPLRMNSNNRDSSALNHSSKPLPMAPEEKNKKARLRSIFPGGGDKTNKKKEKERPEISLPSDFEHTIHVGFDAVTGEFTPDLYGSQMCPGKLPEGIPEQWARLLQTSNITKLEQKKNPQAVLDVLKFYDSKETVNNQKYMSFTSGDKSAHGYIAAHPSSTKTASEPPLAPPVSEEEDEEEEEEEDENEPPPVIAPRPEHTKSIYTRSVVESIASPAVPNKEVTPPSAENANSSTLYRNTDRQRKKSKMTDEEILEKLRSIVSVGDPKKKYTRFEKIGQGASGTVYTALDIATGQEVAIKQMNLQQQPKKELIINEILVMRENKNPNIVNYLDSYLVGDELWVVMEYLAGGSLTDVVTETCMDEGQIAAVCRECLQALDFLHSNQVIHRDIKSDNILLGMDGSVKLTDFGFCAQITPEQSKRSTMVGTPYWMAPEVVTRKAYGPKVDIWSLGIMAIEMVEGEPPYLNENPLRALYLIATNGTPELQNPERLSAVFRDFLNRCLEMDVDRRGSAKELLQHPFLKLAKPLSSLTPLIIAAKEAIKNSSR", "experiment": "KinomeScan", "format": "binding", "conditions": "read-out: % Ctrl @ 10000 nM", "summary_of_the_method": "as §1"}, "PCTK3": {"target": "T17, PCTK3 (Homo sapiens, UniProt Q07002)", "T17 construct": "host or cells: E. coli host derived from BL21, infected with T7 phage", "T17 sequence (Q07002 whole entry)": "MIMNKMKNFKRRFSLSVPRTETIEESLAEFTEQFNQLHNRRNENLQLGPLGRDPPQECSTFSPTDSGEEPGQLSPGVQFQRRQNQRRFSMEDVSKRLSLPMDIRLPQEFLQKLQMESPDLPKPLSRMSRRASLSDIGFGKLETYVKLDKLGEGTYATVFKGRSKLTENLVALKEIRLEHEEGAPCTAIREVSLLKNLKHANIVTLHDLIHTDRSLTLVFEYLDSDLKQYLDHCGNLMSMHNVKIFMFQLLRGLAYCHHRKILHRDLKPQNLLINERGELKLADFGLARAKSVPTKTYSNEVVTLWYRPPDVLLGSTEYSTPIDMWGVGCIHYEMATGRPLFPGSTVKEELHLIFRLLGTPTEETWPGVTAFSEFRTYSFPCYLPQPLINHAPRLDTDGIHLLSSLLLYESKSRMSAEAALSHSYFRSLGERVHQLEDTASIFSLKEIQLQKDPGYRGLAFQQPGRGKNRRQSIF", "experiment": "KinomeScan", "format": "binding", "conditions": "read-out: % Ctrl @ 10000 nM", "summary_of_the_method": "as §1"}, "PDPK1": {"target": "T18, PDPK1 (Homo sapiens, UniProt O15530)", "T18 construct": "host or cells: E. coli host derived from BL21, infected with T7 phage", "T18 sequence (O15530 whole entry)": "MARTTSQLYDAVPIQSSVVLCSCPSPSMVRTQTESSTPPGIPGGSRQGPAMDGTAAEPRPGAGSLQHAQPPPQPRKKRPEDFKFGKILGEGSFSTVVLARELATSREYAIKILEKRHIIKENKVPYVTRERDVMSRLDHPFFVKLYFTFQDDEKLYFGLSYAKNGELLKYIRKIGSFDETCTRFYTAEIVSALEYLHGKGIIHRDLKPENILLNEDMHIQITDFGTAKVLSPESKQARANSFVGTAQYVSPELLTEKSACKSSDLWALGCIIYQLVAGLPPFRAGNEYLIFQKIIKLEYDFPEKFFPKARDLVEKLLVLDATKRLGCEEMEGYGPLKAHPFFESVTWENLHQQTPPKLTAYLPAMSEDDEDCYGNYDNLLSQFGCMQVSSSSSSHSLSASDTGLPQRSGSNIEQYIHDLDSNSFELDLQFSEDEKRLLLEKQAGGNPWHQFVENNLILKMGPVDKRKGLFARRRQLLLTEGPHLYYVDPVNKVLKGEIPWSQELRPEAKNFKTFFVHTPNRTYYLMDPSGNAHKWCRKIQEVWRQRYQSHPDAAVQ", "experiment": "KinomeScan", "format": "binding", "conditions": "read-out: % Ctrl @ 10000 nM", "summary_of_the_method": "as §1"}, "PRKD3": {"target": "T19, PRKD3 (Homo sapiens, UniProt O94806)", "T19 construct": "host or cells: T7 phage in E. coli host derived from BL21", "experiment": "KinomeScan", "format": "binding", "conditions": "read-out: % Ctrl @ 10000 nM", "summary_of_the_method": "as §1"}, "TNNI3K": {"target": "T20, TNNI3K (Homo sapiens, UniProt Q59H18)", "T20 construct": "host or cells: E. coli host derived from BL21, T7 phage", "T20 sequence (Q59H18 whole entry)": "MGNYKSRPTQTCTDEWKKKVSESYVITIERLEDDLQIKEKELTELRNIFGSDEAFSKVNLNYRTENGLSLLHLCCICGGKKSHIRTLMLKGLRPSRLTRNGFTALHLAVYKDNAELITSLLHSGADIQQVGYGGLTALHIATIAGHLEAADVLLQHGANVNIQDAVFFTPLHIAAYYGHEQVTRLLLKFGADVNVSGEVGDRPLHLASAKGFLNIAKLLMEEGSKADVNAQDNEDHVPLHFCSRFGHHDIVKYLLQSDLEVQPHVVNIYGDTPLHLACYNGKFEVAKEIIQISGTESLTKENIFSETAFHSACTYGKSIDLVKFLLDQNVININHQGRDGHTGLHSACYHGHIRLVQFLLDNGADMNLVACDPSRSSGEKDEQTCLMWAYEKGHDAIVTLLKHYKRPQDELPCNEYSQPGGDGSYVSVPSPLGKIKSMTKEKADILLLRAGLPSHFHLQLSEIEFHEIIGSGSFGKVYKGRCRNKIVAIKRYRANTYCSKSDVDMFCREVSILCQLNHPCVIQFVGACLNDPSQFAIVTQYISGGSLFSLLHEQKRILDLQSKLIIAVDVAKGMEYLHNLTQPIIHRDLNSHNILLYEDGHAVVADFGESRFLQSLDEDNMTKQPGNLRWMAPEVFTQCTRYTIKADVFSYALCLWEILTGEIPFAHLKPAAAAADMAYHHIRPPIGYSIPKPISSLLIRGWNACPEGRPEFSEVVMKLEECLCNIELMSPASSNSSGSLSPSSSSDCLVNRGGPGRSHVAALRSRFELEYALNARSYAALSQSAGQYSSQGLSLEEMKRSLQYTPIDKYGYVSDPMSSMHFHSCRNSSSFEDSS", "experiment": "KinomeScan", "format": "binding", "conditions": "read-out: % Ctrl @ 10000 nM", "summary_of_the_method": "as §1"}, "TSSK1B": {"target": "T21, TSSK1B (Homo sapiens, UniProt Q9BXA7)", "T21 construct": "host or cells: E. coli host derived from BL21, T7 phage", "T21 sequence (Q9BXA7 whole entry)": "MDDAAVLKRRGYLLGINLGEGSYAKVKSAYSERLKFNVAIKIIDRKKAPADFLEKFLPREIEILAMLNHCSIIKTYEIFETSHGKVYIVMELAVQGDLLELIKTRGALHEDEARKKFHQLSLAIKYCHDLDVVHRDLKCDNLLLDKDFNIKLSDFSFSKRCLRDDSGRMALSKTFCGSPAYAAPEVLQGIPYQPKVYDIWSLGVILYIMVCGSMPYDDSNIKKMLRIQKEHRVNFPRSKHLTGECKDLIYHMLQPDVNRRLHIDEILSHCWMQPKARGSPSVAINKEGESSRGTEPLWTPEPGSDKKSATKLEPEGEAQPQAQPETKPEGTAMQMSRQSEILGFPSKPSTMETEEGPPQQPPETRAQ", "experiment": "KinomeScan", "format": "binding", "conditions": "read-out: % Ctrl @ 10000 nM", "summary_of_the_method": "as §1"}, "TYRO3": {"target": "T22, TYRO3 (Homo sapiens, UniProt Q06418)", "T22 construct": "host or cells: E. coli host derived from BL21, T7 phage", "experiment": "KinomeScan", "format": "binding", "conditions": "read-out: % Ctrl @ 10000 nM", "summary_of_the_method": "as §1"}, "YANK3": {"target": "T23, YANK3 (Homo sapiens, UniProt Q86UX6)", "T23 construct": "host or cells: E. coli host derived from BL21, T7 phage", "T23 sequence (Q86UX6 whole entry)": "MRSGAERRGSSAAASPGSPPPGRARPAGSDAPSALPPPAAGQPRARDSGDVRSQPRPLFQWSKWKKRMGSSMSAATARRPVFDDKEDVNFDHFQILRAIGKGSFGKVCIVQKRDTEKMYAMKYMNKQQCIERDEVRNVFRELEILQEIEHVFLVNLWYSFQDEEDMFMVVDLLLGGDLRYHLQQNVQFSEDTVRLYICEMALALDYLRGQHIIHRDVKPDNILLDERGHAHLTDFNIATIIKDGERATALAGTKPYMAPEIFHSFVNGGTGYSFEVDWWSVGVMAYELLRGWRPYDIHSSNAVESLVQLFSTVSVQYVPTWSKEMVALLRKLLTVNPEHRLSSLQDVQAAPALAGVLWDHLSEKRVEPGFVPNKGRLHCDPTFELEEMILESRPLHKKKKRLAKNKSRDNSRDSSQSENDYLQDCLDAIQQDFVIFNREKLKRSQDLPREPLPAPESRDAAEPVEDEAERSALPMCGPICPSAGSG", "experiment": "KinomeScan", "format": "binding", "conditions": "read-out: % Ctrl @ 10000 nM", "summary_of_the_method": "as §1"}, "[1]": {"experiment": "Acute toxicity (LD0, LD50)", "format": "in vivo", "conditions": "both, mouse, in vivo, po, 7 days", "experimental": "[…]. The doses 500, 750, 1000 and 2000 mg/Kg were administered orally. Each group included 5 mice. […] The survived animals were autopsied for asserting the absorption of compound through g.i.t. The LD50 was determined according to the method described in Litchfield and Wilcoxon (J. Pharmacol. Exp. Ther. 1949, 96:99-113)."}, "A549 human lung tumors": {"system": "A549 human lung tumors", "experiment": "Evaluation of ED50 (lung section and tumor regression studies)", "format": "in vivo, nude mice", "conditions": "Mus musculus, oral route", "experimental": "ED50 values were evaluated based on the lung section and tumor regression studies."}, "hERG": {"target": "hERG (Homo sapiens, UniProt Q12809)", "experiment": "hERG Ikr (tail) current, whole cell patch-clamp in CHO cells", "conditions": "10 μM"}, "ERBB2": {"target": "ERBB2 (Homo sapiens, UniProt P04626)", "experiment": "KinomeScan", "format": "binding", "design": "purchased Ambit Biosciences Corp; host or cells: T7 phage in E. coli host derived from BL21", "conditions": "read-out: % Ctrl @ 10000 nM", "experimental": "(§2) Kinase assays: Assays were performed as described in Fabian et al. (2005) Nature Biotechnology, vol. 23, p. 329. Kinase-tagged T7 phage strains were grown in parallel in 24 or 96-well blocks in an E. coli host derived from the BL21 strain. E. coli were grown to log-phase and infected with T7 phage from a frozen stock (multiplicity of infection ˜0.1) and incubated with shaking at 32° C. until lysis (−90 minutes). The lysates were centrifuged and filtered to remove cell debris. […] The liganded beads were blocked with excess biotin and washed with blocking buffer (SeaBlock (Pierce), 1% BSA, 0.05% Tween 20, 1 mM DTT) to remove unbound ligand and to reduce non-specific phage binding.\n(§3) Test compounds were prepared as 40× stocks in DMSO and diluted into the aqueous environment. 2.5% DMSO was added to control assays lacking a test compound. All reactions were performed in polystyrene 96-well plates that had been pretreated with blocking buffer in a final volume of 0.04 ml. […] The phage titer in the eluates was measured by quantitative PCR."}, "ERBB4": {"target": "ERBB4 (Homo sapiens, UniProt Q15303)", "experiment": "KinomeScan", "format": "binding", "design": "purchased Ambit Biosciences Corp; host or cells: T7 phage in E. coli host derived from BL21", "conditions": "read-out: % Ctrl @ 10000 nM", "experimental": "as §2, §3"}}, "data": [{"smiles": "C#Cc1cccc(Nc2ncnc3cc(OC)c(OCCCN4CCOCC4)cc23)c1", "note": "[NRC-2694, N-(3-ethynylphenyl)-7-methoxy-6-[3-(4-morpholinyl)propoxy]-4-quinazolinamine]", "values": [{"measurement": "remaining binding at 10 µM", "setting": "AKT2", "value": 100, "unit": "%"}, {"measurement": "remaining binding at 10 µM", "setting": "AKT3", "value": 66, "unit": "%"}, {"measurement": "remaining binding at 10 µM", "setting": "AMPK-alpha1", "value": 50, "unit": "%"}, {"measurement": "remaining binding at 10 µM", "setting": "CAMK1G", "value": 75, "unit": "%"}, {"measurement": "remaining binding at 10 µM", "setting": "CDK2", "value": 94, "unit": "%"}, {"measurement": "remaining binding at 10 µM", "setting": "DAPK3", "value": 34, "unit": "%"}, {"measurement": "remaining binding at 10 µM", "setting": "DCAMKL1", "value": 92, "unit": "%"}, {"measurement": "remaining binding at 10 µM", "setting": "DLK", "value": 92, "unit": "%"}, {"measurement": "remaining binding at 10 µM", "setting": "DRAK1", "value": 51, "unit": "%"}, {"measurement": "remaining binding at 10 µM", "setting": "FES", "value": 72, "unit": "%"}, {"measurement": "remaining binding at 10 µM", "setting": "FGFR4", "value": 69, "unit": "%"}, {"measurement": "remaining binding at 10 µM", "setting": "FLT3(N8411)", "value": 16, "unit": "%"}, {"measurement": "remaining binding at 10 µM", "setting": "GAK", "value": 0.95, "unit": "%"}, {"measurement": "remaining binding at 10 µM", "setting": "MERTK", "value": 48, "unit": "%"}, {"measurement": "remaining binding at 10 µM", "setting": "MLCK", "value": 77, "unit": "%"}, {"measurement": "remaining binding at 10 µM", "setting": "PAK3", "value": 55, "unit": "%"}, {"measurement": "remaining binding at 10 µM", "setting": "PCTK3", "value": 82, "unit": "%"}, {"measurement": "remaining binding at 10 µM", "setting": "PDPK1", "value": 94, "unit": "%"}, {"measurement": "remaining binding at 10 µM", "setting": "PRKD3", "value": 7.2, "unit": "%"}, {"measurement": "remaining binding at 10 µM", "setting": "TNNI3K", "value": 7.6, "unit": "%"}, {"measurement": "remaining binding at 10 µM", "setting": "TSSK1B", "value": 93, "unit": "%"}, {"measurement": "remaining binding at 10 µM", "setting": "TYRO3", "value": 42, "unit": "%"}, {"measurement": "remaining binding at 10 µM", "setting": "YANK3", "value": 100, "unit": "%"}, {"measurement": "LD0", "setting": "[1]", "value": 2000, "unit": "mg/kg"}, {"measurement": "ED50", "setting": "A549 human lung tumors", "value": 6.3, "unit": "mg/kg"}, {"measurement": "inhibition of hERG current", "setting": "hERG", "value": "~42", "unit": "%"}, {"measurement": "remaining binding at 10 µM", "setting": "ERBB2", "value": 31, "unit": "%"}, {"measurement": "remaining binding at 10 µM", "setting": "ERBB4", "value": 3.3, "unit": "%"}]}]}
